Test results taken from patent US20110195433A1 (priority 2007, published 2011).
Entries after “also recorded” stand apart in the source; their conditions may differ. Structures can show the parent of a compound that is named as a salt.

Key:
human MOR [1] = biological target: T1, human MOR (Homo sapiens, UniProt P35372)
human KOR = biological target: T2, human KOR (Homo sapiens, UniProt P41145); experiment: biochemical; conditions: for Emax: read-out: Emax of decrease of basal GTPγS binding
T2 construct: expressed in transfected cells; membranes
T2 sequence (P41145 whole entry): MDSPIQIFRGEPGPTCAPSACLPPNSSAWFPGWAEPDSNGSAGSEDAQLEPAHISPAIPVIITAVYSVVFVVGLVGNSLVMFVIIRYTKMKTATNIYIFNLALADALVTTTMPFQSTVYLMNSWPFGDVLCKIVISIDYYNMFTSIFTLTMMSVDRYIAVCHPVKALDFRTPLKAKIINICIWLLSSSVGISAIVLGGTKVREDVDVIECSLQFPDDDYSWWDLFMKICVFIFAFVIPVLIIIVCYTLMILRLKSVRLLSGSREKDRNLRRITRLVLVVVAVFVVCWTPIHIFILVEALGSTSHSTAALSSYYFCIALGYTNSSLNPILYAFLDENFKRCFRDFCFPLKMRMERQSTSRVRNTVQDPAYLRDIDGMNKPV

animals = experiment: precipitated withdrawal jumping in animals; type: in vivo; conditions: compared with naloxone
mouse DOR [2] = biological target: T3, mouse DOR (Mus musculus, UniProt P32300); experiment: basal [35S]GTPγS binding in DOR cell membranes with or without agonist pretreatment; type: biochemical; design: expressed in transfected cells; membranes
T3 sequence (P32300 whole entry): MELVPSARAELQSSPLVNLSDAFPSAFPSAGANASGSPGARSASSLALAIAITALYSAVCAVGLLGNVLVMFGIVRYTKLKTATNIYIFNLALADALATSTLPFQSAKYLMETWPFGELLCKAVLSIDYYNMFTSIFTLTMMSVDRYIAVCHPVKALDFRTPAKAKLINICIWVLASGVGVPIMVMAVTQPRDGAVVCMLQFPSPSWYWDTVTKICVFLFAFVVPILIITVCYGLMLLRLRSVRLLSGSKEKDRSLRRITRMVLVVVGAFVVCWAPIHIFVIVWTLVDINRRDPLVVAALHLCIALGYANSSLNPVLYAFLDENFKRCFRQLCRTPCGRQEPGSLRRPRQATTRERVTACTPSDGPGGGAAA

mouse DOR [3] = biological target: T3, mouse DOR
human MOR [4] = biological target: T1, human MOR; type: biochemical; design: expressed in transfected cells; membranes

T1 sequence (P35372 whole entry): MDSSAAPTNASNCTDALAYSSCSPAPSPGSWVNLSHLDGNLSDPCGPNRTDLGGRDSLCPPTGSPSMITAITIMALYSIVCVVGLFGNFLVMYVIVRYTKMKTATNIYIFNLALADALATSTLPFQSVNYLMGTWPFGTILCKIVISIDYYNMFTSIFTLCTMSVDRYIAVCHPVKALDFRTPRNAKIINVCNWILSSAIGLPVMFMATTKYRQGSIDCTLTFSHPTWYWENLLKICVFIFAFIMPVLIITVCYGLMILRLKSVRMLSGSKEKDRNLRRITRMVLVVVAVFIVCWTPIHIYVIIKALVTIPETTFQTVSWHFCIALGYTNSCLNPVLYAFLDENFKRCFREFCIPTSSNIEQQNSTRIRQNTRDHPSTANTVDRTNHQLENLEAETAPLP

C[C@@H](NC(=O)[C@@H](N)Cc1ccc(O)cc1)C(=O)NCC(=O)N(C)[C@@H](Cc1ccccc1)C(=O)NCCO [DAMGO, [D-Ala2,N-Me-Phe4,Gly5-ol]-enkephalin]
change of agonist Emax value after pretreatment (human MOR [1]): decreased

Oc1ccc2c3c1O[C@H]1c4[nH]c5c(c4C[C@@]4(O)[C@@H](C2)N(CC2CC2)CC[C@]314)C[C@@]1(O)[C@H]2Cc3ccc(O)c4c3[C@@]1(CCN2CC1CC1)[C@H]5O4 [nor-BNI, nor-binaltorphimine]
change of inverse agonist effects after pretreatment (human KOR): increased
pharmacological property at KOR (human KOR): inverse agonists
Emax (human KOR): ~10%

N=C(N)Nc1ccc2[nH]c3c(c2c1)CC1(O)C2Cc4ccc(O)c5c4C1(CCN2CC1CC1)C3O5 (stereo not drawn) [GNTI, 5′-guanidinyl-17-(cyclopropylmethyl)-6,7-dehydro-4,5α-epoxy-3,14-dihydroxy-6,7-2′3′-indolomorphinan dihydrochloride]
EC50 of decrease of basal GTPγS binding (human KOR): femtomolar range
change of inverse agonist effects after pretreatment (human KOR): increased
pharmacological property at KOR (human KOR): inverse agonists
Emax (human KOR): ~10%

Oc1ccc2c3c1O[C@H]1[C@H](O)CC[C@@]4(O)[C@@H](C2)N(CC2CC2)CC[C@]314 [6β-naltrexol]
precipitated withdrawal jumping (animals): less withdrawal jumping than naloxone
inhibition of the inverse agonist effect of naloxone (mouse DOR [2]; DPDPE-pretreated DOR membranes): inhibited
pharmacological property at DOR (mouse DOR [2]; after DPDPE or morphine pretreatment): neutral antagonist property; also recorded: remained neutral
antagonistic property against agonist-stimulated [35S]GTPγS binding (mouse DOR [3]; 30 nM DPDPE, DOR membranes): full antagonists

O=C1C(=Cc2ccccc2)C[C@@]2(O)[C@H]3Cc4ccc(O)c5c4[C@@]2(CCN3CC2CC2)[C@H]1O5 [BNTX, 7-benzylidenenaltrexone]
change of inverse agonist effects after pretreatment (human MOR [4]): increased
shift of inverse agonist dose-response curve after pretreatment (human MOR [4]): shifted the dose-response curve of BNTX to the left

N,N-diallyl-Tyr-Aib-Aib-Phe-Leu-OH [ICI 174,864]
change of inverse agonist effects after pretreatment (mouse DOR [2]; DPDPE pre-exposure, DOR): decreased
change of inverse agonist Emax after pretreatment (mouse DOR [2]; morphine pretreatment, DOR): without affecting
shift of inverse agonist dose-response curve after pretreatment (mouse DOR [2]; morphine pretreatment, DOR): shifted the dose-response curve for ICI 174,864 to the left

[D-Pen2,D-Pen5]-enkephalin [DPDPE]
change of agonist Emax value after pretreatment (mouse DOR [3]): decreased
